This is an account of results in patent publication US11246945B2, “Cisplatin-loaded microbubbles, pharmaceutical composition for treatment of cancer, method for preparing pharmaceutical compositions and method for treating cancer” (National Defense Medical Center, priority 2019, dated 2022).

The subject of series [1] is FaDu-fLuc/GFP tumor xenograft. As to the kind of experiment: Anti-tumor effect on head and neck cancer xenograft (IVIS bioluminescence). The format is in vivo, SCID mice. Particulars: Day 33; without ultrasound exposure. The protocol: Severe combined immunodeficiency (SCID) mice were subcutaneously implanted with luminescence-labelled hypopharynx carcinoma cell line (FaDu-fLuc/GFP) (2×10^6 cells/mouse) into the right flank region on Day 0. On Day 4, tumor xenograft formation and size in implanted SCID mice were determined by IVIS® bioluminescence imaging system (version 4.4, Caliper Life Sciences, Alameda, Calif., USA). The implanted SCID mice were then classified into group I to group V (hereinafter referred to as “Gps I-V”), and the implanted SCID mice of each group were treated with different pharmaceutical compositions, which are summarized in Table 6 below. Specifically, the mice of Gp I was the control group, and was treated with saline. The mice of Gp II were treated with cisplatin dissolved in saline. The mice of Gp III were treated with saline containing the mixture of cisplatin and albumin microbubbles (concentration: 1.4×10^8 particles/mL), followed by ultrasound exposure (power: 3 W/cm^2, 30 seconds). […] The anti-tumor effect of cisplatin-based chemotherapy was evaluated in vivo on the growth of head and neck cancer by twice-weekly recordings of luciferase bioluminescence data derived from IVIS® images. On day 33, after the IVIS® images of the mice were obtained, the mice were sacrificed and analysed.

The nature of series [2]: Body weight during the 33-day treatment. As to conditions: 33-day treatment period; without ultrasound. In kind it is in vivo, SCID mice. As to the method: Severe combined immunodeficiency (SCID) mice were subcutaneously implanted with luminescence-labelled hypopharynx carcinoma cell line (FaDu-fLuc/GFP) (2×10^6 cells/mouse) into the right flank region on Day 0. On Day 4, tumor xenograft formation and size in implanted SCID mice were determined by IVIS® bioluminescence imaging system (version 4.4, Caliper Life Sciences, Alameda, Calif., USA). The implanted SCID mice were then classified into group I to group V (hereinafter referred to as “Gps I-V”), and the implanted SCID mice of each group were treated with different pharmaceutical compositions, which are summarized in Table 6 below. Specifically, the mice of Gp I was the control group, and was treated with saline. The mice of Gp II were treated with cisplatin dissolved in saline. The mice of Gp III were treated with saline containing the mixture of cisplatin and albumin microbubbles (concentration: 1.4×10^8 particles/mL), followed by ultrasound exposure (power: 3 W/cm^2, 30 seconds). […] The anti-tumor effect of cisplatin-based chemotherapy was evaluated in vivo on the growth of head and neck cancer by twice-weekly recordings of luciferase bioluminescence data derived from IVIS® images. On day 33, after the IVIS® images of the mice were obtained, the mice were sacrificed and analysed. […]

For series [3], the system named is head and neck cancers. As to conditions: patients with head and neck cancers; cited from earlier work.
For series [4] the following is noted: intraperitoneal, single 14 mg/kg or 4.6 mg/kg/day for three consecutive days; cited from earlier work.

Regarding `N.N.[Cl][Pt][Cl]` [CDDP, Cis-Diamine platinum (II) Dichloride], the “Tumor reduction / inhibition of tumor growth (luminescence flux)” value in series [1] is “significantly better outcomes as compared to Gp IV”. Also, the “Body weight gain compared with Gp I, Gp IV and Gp V” value in series [2] is “statistically smaller body weight gain”. For the same compound, the Median survival time in series [3] is on record as 151 days. Moreover, the Hearing threshold entry in series [4] is recorded as “caused a hearing threshold shift”.
